We go through 36 compounds from patent US8148371B2, “Adenine compound and use thereof” (Dainippon Sumitomo Pharma Co., Ltd., priority 2002, dated 2012).

Where two headings read alike, the source gives them in different places. Marks after values point to notes of the source that are not given here.

A short description of series [1]: Metabolic stability on liver S9 of rat. As to conditions: 37° C.
Description: The compound of the present invention is added to liver S9 solution, and the mixture is incubated at 37±0.5° C. for 5 minutes to 2 hours. By quantitatively analyzing at the definite interval the amount of the compound of the present invention remaining in the liver S9 solution with HPLC (high performance liquid chromatography), etc., the constant of quenching velocity is calculated and the half life is calculated.
The reaction on river S9 of a rat was carried out on a 96-well plate by using a robot for screening by Tecan Company. S9 solution was prepared by adding to 10 ml of liver S9 of a rat, 20 ml of 250 mM Kpi (pH 7.4) and 20 ml of deionized water. Cofactor solution was prepared by dissolving NADPH (220 mg) in deionized water (40.5 ml) to give finally a 6 mM solution. IS (Internal Standard) solution was prepared by adding 300 μL of IS solution (1 mM DMSO solution) to 30 ml of acetonitrile solution (100 times dilution). The test compound (1 μM DMSO solution) was dissolved in an incubator at 37° C., 35 μL of it was poured into each well of a 96-well plate (24 samples/plate and then, plates (a sample plate, a 96 well-plate for dilution, deep well plates for reaction and recovering, a plate for extraction of the solid phase) and the test samples (S9 solution, Cofactor solution, IS (Internal Standard) solution, Stop solution, acetonitrile for elution) were set to the specified position in the booth of the robot. The reaction started (the concentration of the test compound was 1 μM) and the mixture was incubated at 37° C. under stirring. The solid phase was extracted and at the same time the internal standard for analysis was added. To the recovered sample (200 μL/well) was added 50 μL of acetonitrile per each well and to 2 plates of FALCON Deep well were poured 100 μL of the solution per well. By subjecting to the LC/MS analysis, the chromatogram of the test sample and the internal standard were described and the peak area was calculated. And then, the stability (residual rate after reaction) was calculated by the internal standard method.
The subject of series [2] is plasma esterase. To be noted: rat plasma, 37° C., 15 minutes.
Description: The compound of the present invention is added to the serum solution, and the mixture is incubated at 37±0.5° C. for 5 minutes to 2 hours. By quantitatively analyzing at the definite interval the amount of the compound of the present invention remaining in the serum solution with HPLC (high performance liquid chromatography), etc., the constant of quenching velocity calculated and the half life is calculated.
The serum herein means the supernatant fraction obtained by excluding hemocytes and blood coagulation factor from blood by centrifugation, etc. The serum diluted with buffer, etc. can be used.
The metabolic stability of the test compound was presented by the residual amount (%) per the concentration of pre-metabolization.
For series [3], the system named is cells of rat spleen. Nature of the series: cells. The series is classed as cell-based, SD rat. As to conditions: for minimal effective concentration: 24 h, read-out: Minimum effective concentration (interferon inducing activity).
Setting [4] is: rat liver S9, test compound 1 μM.
Where [5] appears, read: rat liver S9, test compound 10 μM (*).

As to `CCCCOc1nc(N)c2nc(O)n(Cc3cccc(C(=O)OC(C)C)c3)c2n1` [Example 3, 2-Butoxy-8-hydroxy-9-(3-isopropoxycarbonylbenzyl)adenine], the Residual rate in series [1] (setting [4]) came to 19%; in series [2] (test compound 10 μM) it was 20%.
As for `CCOC(=O)CCc1nc(N)c2nc(O)n(Cc3ccccc3)c2n1` [Example 62, 9-Benzyl-2-ethoxycarbonylethyl-8-hydroxy adenine], the Residual rate in series [2] (test compound 1 μM (*)) is on record as 0* %. Also, in series [3], the “Minimum effective concentration (interferon inducing activity)” value stood at 30 nM.
Take `CCCCOc1nc(N)c2nc(O)n(Cc3ccc(CC(=O)OCCN4CCOCC4)cc3)c2n1` [Example 73, 2-Butoxy-8-hydroxy-9-{4-(2-morpholinoethoxycarbonyl)methylbenzyl}adenine]: the Residual rate is 0% in series [1] (setting [4]) and 4* % in series [2] (test compound 1 μM (*)). The minimal effective concentration in series [3] was 0.0003 µM.
In series [2] (test compound 10 μM), `CCCCOc1nc(N)c2nc(O)n(Cc3cccc(C(=O)OCCOCc4ccccc4)c3)c2n1` [Example 5, 2-Butoxy-8-hydroxy-9-{3-(2-benzyloxyethoxycarbonyl)benzyl}adenine] returned a Residual rate of 18%.
Regarding `CCCCOc1nc(N)c2nc(O)n(Cc3cccc(C(=O)OCC)c3)c2n1` [Example 2, 2-Butoxy-8-hydroxy-9-(3-ethoxycarbonylbenzyl)adenine], the Residual rate in series [1] (setting [4]) was determined as 11%; in series [2] (test compound 10 μM), 5%. Besides, in series [3], the minimal effective concentration was determined as 0.001 µM.
The matching figures for `CCCCOc1nc(N)c2nc(O)n(Cc3ccc(C(=O)OC)nc3)c2n1` [Example 17, 2-Butoxy-8-hydroxy-9-{(6-methoxycarbonyl-3-pyridyl)methyl}adenine]: 28%, 0% and 0.001 µM.
As for `COC(=O)COc1nc(N)c2nc(O)n(Cc3ccccc3)c2n1` [Example 64, 9-Benzyl-8-hydroxy-2-methoxycarbonylmethoxyadenine], the Residual rate is 2% in series [1] (setting [4]) and 0* % in series [2] (test compound 1 μM (*)). Also, the minimal effective concentration in series [3] is 0.003 µM.
Consider `COCCOC(=O)CSc1nc(N)c2nc(O)n(Cc3ccccc3)c2n1` [Example 49, 9-Benzyl-8-hydroxy-2-(2-methoxyethoxycarbonylmethyl)thioadenine], for which the Residual rate in series [1] (setting [4]) and in series [2] (test compound 10 μM) was 0% each time.
As to `CCCCOc1nc(N)c2nc(O)n(Cc3ccc(C(=O)OCc4cccnc4)cc3)c2n1` [Example 13, 2-Butoxy-8-hydroxy-9-{4-(3-pyridylmethoxycarbonyl)benzyl}adenine], the Residual rate in series [2] (test compound 10 μM) was found to be 10%.
In turn, `CCCCOc1nc(N)c2nc(O)n(Cc3ccc(C(=O)OC(C)C)nc3)c2n1` [Example 18, 2-Butoxy-8-hydroxy-9-{(6-isopropoxycarbonyl-3-pyridyl)methyl}adenine] displayed a Residual rate in series [2] (test compound 10 μM) of 0%.
As to `CCOC(=O)CCCSc1nc(N)c2nc(O)n(Cc3ccccc3)c2n1` [Example 56, 9-Benzyl-2-(3-ethoxycarbonylpropyl)thio-8-hydroxyadenine], the Residual rate in series [1] (setting [4]) amounted to 1%; in series [2] (test compound 10 μM), 0%.
Take `CCOC(=O)COc1nc(N)c2nc(O)n(Cc3ccccc3)c2n1` [Example 65, 9-Benzyl-2-ethoxycarbonylmethoxy-8-hydroxyadenine]: in series [2] (test compound 1 μM (*)), the Residual rate was 0* %. In series [3], the minimal effective concentration was 0.03 µM.
As for `CCCCOc1nc(N)c2nc(O)n(Cc3ccc(C(=O)OC(C)C)cc3)c2n1` [Example 12, 2-Butoxy-8-hydroxy-9-(4-isopropoxycarbonylbenzyl)adenine], the Residual rate in series [2] (test compound 10 μM) was 29%.
Regarding `COC(=O)c1cccc(CSc2nc(N)c3nc(O)n(Cc4ccccc4)c3n2)c1` [Example 103, 9-Benzyl-8-hydroxy-2-[(3-methoxycarbonylbenzyl)thio]adenine], the values for the Residual rate in series [1] (setting [4]) and in series [2] (test compound 1 μM (*)) were 7% and 6* %, respectively. Further, the minimal effective concentration in series [3] worked out at 0.01 µM.
As to `COC(=O)CNc1nc(N)c2nc(O)n(Cc3ccccc3)c2n1` [Example 31, 9-Benzyl-8-hydroxy-2-methoxycarbonylmethylaminoadenine], the Residual rate was 3% in series [1] (setting [4]) and 0% in series [2] (test compound 10 μM).
On to `CCCCOc1nc(N)c2nc(O)n(Cc3ccc(CC(=O)OCCO)cc3)c2n1` [Example 71, 2-Butoxy-8-hydroxy-9-{4-(2-hydroxyethoxycarbonyl)methylbenzyl}adenine], for which the Residual rate in series [1] (setting [4]) is recorded as 0%; in series [2] (test compound 1 μM (*)), 0* %. Also, the minimal effective concentration in series [3] was found to be 0.0003 µM.
As to `CCCCOc1nc(N)c2[nH]c(=O)n(Cc3ccc(C(=O)OC)cc3)c2n1` [Example 11, 2-Butoxy-8-hydroxy-9-(4-methoxycarbonylbenzyl)adenine], the Residual rate in series [2] (test compound 10 μM) amounted to 13%.
Turning to `C=CCOC(=O)CSc1nc(N)c2nc(O)n(Cc3ccccc3)c2n1` [Example 44, 2-(Allyloxycarbonylmethyl)thio-9-benzyl-8-hydroxyadenine], the Residual rate in series [1] (setting [4]) and in series [2] (test compound 10 μM) was 0% each time.
Turning to `CCOC(=O)CCSc1nc(N)c2nc(O)n(Cc3ccccc3)c2n1` [Example 55, 9-Benzyl-2-(2-ethoxycarbonylethyl)thio-8-hydroxyadenine], the Residual rate in series [1] (setting [5]) was 4* %; in series [2] (test compound 10 μM), 0%.
With `CC(C)(C)OC(=O)CSc1nc(N)c2nc(O)n(Cc3ccccc3)c2n1` [Example 43, 9-Benzyl-2-(t-butoxycarbonylmethyl)thio-8-hydroxyadenine], the Residual rate amounted to 2% in series [1] (setting [4]) and 0% in series [2] (test compound 10 μM).
On the same counts, the results for `CCCCOc1nc(N)c2nc(O)n(Cc3cccc(C(=O)OCCN4CCOCC4)c3)c2n1` [Example 8, 2-Butoxy-8-hydroxy-9-{3-(2-morpholinoethoxycarbonyl)benzyl}adenine] are 1% and 16%.
On the same counts, the results for `CCCCOc1nc(N)c2nc(O)n(Cc3ccc(OCC(=O)OC)cc3)c2n1` [Example 22, 2-Butoxy-8-hydroxy-9-(4-methoxycarbonylmethoxybenzyl)adenine] are 31% and 0%.
In the case of `CCOC(=O)CSc1nc(N)c2nc(O)n(Cc3ccccc3)c2n1` [Example 41, 9-Benzyl-2-(ethoxycarbonylmethyl)thio-8-hydroxyadenine], the Residual rate in series [1] (setting [5]) is 2* %; in series [2] (test compound 10 μM), 0%.
With `CCCCOc1nc(N)c2nc(O)n(Cc3ccc(C(=O)SC)nc3)c2n1` [Example 82, 2-Butoxy-8-hydroxy-9-{(6-S-methylthiocarbonyl-3-pyridyl)methyl}adenine], in series [1] (setting [4]), the Residual rate turned out to be 2%. In addition, the “Minimum effective concentration (interferon inducing activity)” value in series [3] is recorded as 100 nM.
With `CCCCOc1nc(N)c2nc(O)n(Cc3ccc(CC(=O)SCC)cc3)c2n1` [Example 75, 2-Butoxy-9-{4-(S-ethylthiocarbonyl)methylbenzyl}-8-hydroxyadenine], in series [2] (test compound 1 μM (*)), the Residual rate was 0* %. Also, the minimal effective concentration in series [3] is 0.003 µM.
In turn, `CCCCOc1nc(N)c2nc(O)n(Cc3cccc(C(=O)OCc4cccnc4)c3)c2n1` [Example 9, 2-Butoxy-8-hydroxy-9-{3-(3-pyridylmethoxycarbonyl)benzyl}adenine] came in with a Residual rate in series [2] (test compound 10 μM) of 1%.
With `Nc1nc(SCC(=O)OCCF)nc2c1nc(O)n2Cc1ccccc1` [Example 46, 9-Benzyl-2-(2-fluoroethoxycarbonylmetyl)thio-8-hydroxyadenine], the Residual rate in series [1] (setting [4]) and in series [2] (test compound 10 μM) was 0% throughout.
With `CCCCOC(=O)Cc1nc(N)c2nc(O)n(Cc3ccccc3)c2n1` [Example 107, 9-Benzyl-2-butoxycarbonylmethyl-8-hydroxyadenine], in series [1] (setting [4]), the Residual rate was found to be 3%. In addition, the minimal effective concentration in series [3] worked out at 0.1 µM.
As to `Nc1nc(SCC(=O)OCC(F)F)nc2c1nc(O)n2Cc1ccccc1` [Example 47, 9-Benzyl-2-(2,2-difluoroethoxycarbonylmetyl)thio-8-hydroxyadenine], the Residual rate in series [1] (setting [4]) and in series [2] (test compound 10 μM) was 0% each time.
As for `Nc1nc(SCC(=O)OCc2ccccc2)nc2c1nc(O)n2Cc1ccccc1` [Example 45, 2-(Benzyloxycarbonylmethyl)thio-9-benzyl-8-hydroxyadenine], the Residual rate in series [1] (setting [5]) is 8* %; in series [2] (test compound 10 μM) it was 0%.
Consider `CCCCCCCCOC(=O)CSc1nc(N)c2nc(O)n(Cc3ccccc3)c2n1` [Example 42, 9-Benzyl-8-hydroxy-2-(octyloxycarbonylmethyl)thioadenine], for which the figures for the Residual rate in series [1] (setting [4]) and in series [2] (test compound 10 μM) were 3% and 0%, respectively.
On to `CCC(=O)OCCOc1nc(N)c2nc(O)n(Cc3ccc(C)nc3)c2n1` [Example 37, 8-Hydroxy-9-(6-methyl-3-pyridyl)methyl-2-{2-(propionyloxy)ethoxy}adenine], for which the Residual rate in series [2] (test compound 10 μM) came to 0%.
In the case of `CCCCOc1nc(N)c2nc(O)n(Cc3cccc(C(=O)OCC(F)(F)F)c3)c2n1` [Example 4, 2-Butoxy-8-hydroxy-9-{3-(2,2,2-trifluorroethoxycarbonyl)benzyl}adenine], the Residual rate was determined as 25% in series [1] (setting [4]) and 23% in series [2] (test compound 10 μM).
`CCCCOc1nc(N)c2nc(O)n(Cc3ccc(OC(O)CCC(=O)OC)cc3)c2n1` (stereo not shown) [Example 95, 2-Butoxy-9-{4-(1-hydroxy-3-methoxycarbonylpropoxy)benzyl}-8-hydroxyadenine] came in with a Residual rate in series [1] (setting [4]) of 4%. For the same compound, in series [3], the minimal effective concentration came out at 0.001 µM.
The compound `CCCCOc1nc(N)c2nc(O)n(Cc3ccc(C(=O)OC)c(C(=O)OC)c3)c2n1` [Example 90, 2-Butoxy-9-(3,4-dimethoxycarbonylbenzyl)-8-hydroxyadenine] had a Residual rate in series [1] (setting [4]) of 3%. In addition, the minimal effective concentration in series [3] came to 0.0003 µM.
`CCCCNc1nc(N)c2nc(O)n(Cc3ccc(C(=O)OC)cc3)c2n1` [Example 27, 2-Butylamino-8-hydroxy-9-(4-methoxycarbonylbenzyl)adenine]: the Residual rate in series [2] (test compound 10 μM) was 0%.
